# According to US4774248A, “Methods of treating depression and depressive states using 5-phenyl-1,4,5,6-tetrahydropyrimidine derivatives” (priority 1985, dated 1988):
# “Also recorded” adds a separate entry of the source.
# What was measured:
# mice [1] = assay: Overall behavior and reactivities in mice; assay type: in vivo; conditions: i.p.
# Method: (§1) The results of toxicological and neuropsychopharmacological tests which were carried out with the products according to the invention have been summarized below. In these tests, solutions of the said products in distilled water were administered intraperitoneally in a volume of 20 ml/kg to male mice and in a volume of 5 ml/kg to male rats.
# (§2) Groups of 3 animals are observed before and then 0.25 h, 0.50 h, 1 h, 2 h, 3 h and 24 h after the administration of CRL 41 378. The following observations are made:
# (§3) Groups of 3 animals are observed before and then 0.25 h, 0.50 h, 1 h, 2 h, 3 h and 24 h after the administration of CRL 41 329.
# rats = assay: Overall behavior and reactivities in rats; assay type: in vivo; conditions: i.p.
# Method: as §1, §2, §3
# [2] = test system: hypothermia and ptosis induced by reserpine; assay: Interaction with reserpine; assay type: in vivo; conditions: mice, i.p.; reserpine 2.5 mg/kg
# Method: as §1
# Four hours after the intraperitoneal injection of 2.5 mg/kg of reserpine, groups of 12 mice receive CRL 41 378.
# mice [3] = assay: Electric shock; assay type: in vivo; conditions: i.p.
# Method: as §1
# The test is performed on groups of 10 mice 30 minutes after the administration of CRL 41 378.
# [4] = test system: central nervous system (CNS); assay: Neuropsychopharmacological profile (conclusions of the tests); assay type: in vivo, mice and rats; conditions: i.p.
# Method: as §1
# mice [5] = assay: Spontaneous motility (actimeter); assay type: in vivo; conditions: i.p.
# Method: as §1
# 0.5 h after they have received CRL 41 378, the mice (6 per dose, 12 control animals) are placed in an actimeter, where their motility is recorded for 30 minutes.
# mice [6] = assay: Intergroup aggressiveness; assay type: in vivo; conditions: mice, i.p.
# Method: as §1
# After they have stayed for 3 weeks in the two halves of a cage divided by an opaque partition, groups of 3 mice receive CRL 41 378. Half an hour later, the two groups from the same cage are brought together by removal of the partition and the number of fights which occur in 10 minutes is noted.
# mice [7] = assay: Motility reduced by hypoxic aggression (acute hypobaric anoxia); assay type: in vivo; conditions: i.p.
# Method: In these tests, solutions of the said products in distilled water were administered intraperitoneally in a volume of 20 ml/kg to male mice and in a volume of 5 ml/kg to male rats.
# [8] = test system: stereotypies induced by apomorphine; assay: Interaction with apomorphine in rats; assay type: in vivo; conditions: i.p., apomorphine 0.5 mg/kg s.c.
# Method: as §1
# CRL 41 378 is administered to groups of 12 rats 0.5 h before the subcutaneous injection of 0.5 mg/kg of apomorphine.
# male mice = assay: Acute toxicity, intraperitoneal (LD0, LD30, LD60, LD100); assay type: in vivo
# Method: as §1
# [9] = as above; assay type: in vivo; conditions: mouse, in vivo, ip; 128 mg/kg i.p., male mice; read-out: death 24 h after administration
# Method: as §1
# [10] = test system: hypothermia, trembling and peripheral cholinergic symptoms induced by oxotremorine; assay: Interaction with oxotremorine; assay type: in vivo; conditions: mice, i.p.; oxotremorine 0.5 mg/kg
# Method: as §1
# CRL 41 378 is administered to groups of 6 mice 0.5 h before the intraperitoneal injection of 0.5 mg/kg of oxotremorine.
# [11] = test system: hypothermia, righting behavior and stereotypies induced by apomorphine; assay: Interaction with apomorphine in mice; assay type: in vivo; conditions: i.p.
# Method: as §1
# CRL 41 378 is administered to groups of 6 mice 30 minutes before the subcutaneous injection of 1 or 16 mg/kg of apomorphine.
compound,measurement,setting,value
"Cl.Clc1ccc(C2CN=CNC2)cc1 (stereo not drawn) [CRL 41 336, 5-(4-chlorophenyl)-1,4,5,6-tetrahydropyrimidine hydrochloride]",moderate hypothermia,"mice [1]; 32 mg/kg, from 1 to 3 hours",-1.3 °C
same,overall behavior and reactivities,"mice [1]; 32 mg/kg, hydrochloride",sedation for 0.25 h; also recorded: a decrease in the breathing rate from 1 to 3 hours; also recorded: moderate hypothermia; also recorded: vasodilation of the ears and tail from 0.5 h to 3 h
same,overall behavior and reactivities,mice [1]; 0.5 to 8 mg/kg,no distinct modification of the behavior and reactivities
same,overall behavior and reactivities,rats; 4 mg/kg,mydriasis for 2 hours (maximum 0.5 h after administration)
same,overall behavior and reactivities,"rats; 16 mg/kg, hydrochloride",sedation for 3 h; also recorded: a decrease in the breathing rate for 3 h; also recorded: mydriasis for 3 h (with its maximum intensity 0.5 h after administration); also recorded: piloerection for 1 h; also recorded: vasodilation (of the paws) for 2 h
same,overall behavior and reactivities,rats; 0.25 and 1 mg/kg,"behavior, reactivities and variations in rectal temperature and pupil diameter which are substantially comparable to those of the animals in the control group"
same,action on hypothermia induced by reserpine,[2],more moderate antagonism of the hypothermia induced by reserpine
same,lethal effects of electric shock,mice [3],aggravation of the lethal effect of electric shock
same,antidepressant effects,[4],antidepressant effects
same,peripheral α-adrenergic stimulant effects,[4],"peripheral α-adrenergic stimulant effects appearing at high doses, especially as mydriasis and piloerection in rats"
same,sedative effects,[4]; hydrochloride,sedation in mice and rats; also recorded: hypothermia (transient) in mice
same,spontaneous motor activity,mice [5],a decrease in the spontaneous motor activity
same,intergroup aggressiveness (number of fights),mice [6],a decrease in the intergroup aggressiveness in mice
same,motor recovery after acute hypobaric hypoxia,mice [7],a decrease in the motility after acute hypobaric hypoxia
same,action on stereotypies induced by apomorphine,[8],decreases the stereotypies induced by apomorphine in rats and mice
same,toxic signs in the animals treated,male mice; 64 mg/kg i.p.,all the animals treated exhibit sedation and a decrease in the breathing rate
same,toxic signs in the animals treated,male mice; 128 mg/kg i.p.,the animals exhibit sedation and a decrease in the breathing rate
same,LD0 (maximum non-lethal dose),male mice; intraperitoneal,greater than 64 mg/kg
same,LD60,male mice; intraperitoneal,about 128 mg/kg
same,LD100 (minimum dose lethal to all the animals),male mice; intraperitoneal,200 to 210 mg/kg
same,mortality at 24 h,[9],60%
same,action on hypothermia induced by oxotremorine,[10],distinct antagonism of the hypothermia induced by apomorphine and oxotremorine
same,action on hypothermia induced by apomorphine,[11],distinct antagonism of the hypothermia induced by apomorphine and oxotremorine
same,action on righting behavior and stereotypies due to apomorphine,[11],decreases the stereotypies induced by apomorphine in rats and mice
